Source: patent US11358962B2, “2-hetaryl imidazol[1,2-a]pyridine derivatives” (Hoffmann-La Roche Inc., priority 2013, dated 2022)

Tested on: native tau aggregates
Test: TAU radioligand in vitro displacement assay ([3H]T808, autoradiography on human AD brain sections)
Type: binding
Conditions: compound 10 nM, radioligand [3H]T808 10 nM
From the text: TAU Radioligand-In-Vitro Displacement Assay
This in vitro binding assay assesses the affinity of compounds for native tau aggregates.
AD human brains are purchased from Banner Sun Health Research Institute (Sun City, Ariz., USA). Pathological diagnosis of AD is made according to standard NIA-Reagan Institute criteria based on neuropathological data. The radioligand [^3H]T808 was synthesized in-house ([^3H]-2-[4-(2-Fluoro-ethyl)-piperidin-1-yl]-benzo[4,5]imidazo[1,2-a]pyrimidine, radiochemical purity 99.0%). As a reference cold T808 is used (2-[4-(2-Fluoro-ethyl)-piperidin-1-yl]-benzo[4,5]imidazo[1,2-a]pyrimidine). For the autoradiography FujiFilm Imaging Plates (BAS-IP TR 2025) are exposed to the sections and read with a FujiFilm IP reader (BAS-5000).
Ten μm thick human AD brain sections are generated with a cryostat (Leica CM3050) at −17° C. chamber temperature and −15° C. object temperature. Sections are transferred to Histobond+ microscope slides (Marienfeld Laboratory Glasware). After drying for 3 hours at room temperature the sections are stored at −20° C. The sections are incubated with the radioligand (10 nM) and the respective cold compound (at various concentrations) in 50 mM Tris buffer, pH 7.4 at room temperature for 30 min. After washing 3× 10 min at 4° C. in 50 mM Tris buffer, pH 7.4 and 3 quick dips in H2O dist. at 4° C. the sections are dried at 4° C. for 3 h. The sections are placed in a FujiFilm Cassette (BAS 2025), exposed with an Imaging Plate for five days and afterwards scanned with a resolution of […].
The signal intensity (Dens−PSL/mm2) in the region of interest (ROI) of the autoradiogram is quantified with the software MCID analysis (version 7.0, Imaging Research Inc.). The specific binding (SB) of [^3H]T808 binding in absence or in presence of a compound is calculated by subtracting the non-specific binding signal in the white matter, thus yielding SB[3H]T808 only and SBcompound. The % displacement by the various compounds is calculated as following: % displacement=100−(SBcompound/SB[3H]T808 only)*100. Validation Data
In each experiment cold T808 is used as a positive internal control. Co-incubation of equimolar amounts of hot and cold T808 is expected to reduce specific binding by approximately 50%.

% displacement of [3H]T808 (10 nM) at 10 nM | SMILES
53% | CN(C)c1ccn2cc(-c3cccc(OCF)c3)nc2c1 [Example 78, [2-(3-Fluoromethoxy-phenyl)-imidazo[1,2-a]pyridin-7-yl]-dimethyl-amine]
20% | CSc1ccc(-c2cn3ccc(NCCF)cc3n2)cc1 [Example 79, (2-Fluoro-ethyl)-[2-(4-methylsulfanyl-phenyl)-imidazo[1,2-a]pyridin-7-yl]-amine]
34% | FCOc1ccc(-c2cn3ccc(NC4CC4)cc3n2)cc1 [Example 80, Cyclopropyl-[2-(4-fluoromethoxy-phenyl)-imidazo[1,2-a]pyridin-7-yl]-amine]
47% | CNc1ccn2cc(-c3ccc(O)c(OC)c3)nc2c1 [Example 81, 2-Methoxy-4-(7-methylamino-imidazo[1,2-a]pyridin-2-yl)-phenol]
49% | Br.CN(C)c1ccn2cc(-c3cccc(O)c3)nc2c1 [Example 82, 3-(7-Dimethylamino-imidazo[1,2-a]pyridin-2-yl)-phenol hydrobromide]
32% | CC(=O)O.COc1cccc(-c2cn3ccc(N(C)CCF)cc3n2)c1 [Example 83, N-(2-fluoroethyl)-2-(3-methoxyphenyl)-N-methylimidazo[1,2-a]pyridin-7-amine, acetic acid adduct]
26% | FC1CCN(c2ccn3cc(-c4ccc5c(c4)OCCO5)nc3c2)CC1 [Example 84, 2-(2,3-Dihydro-benzo[1, 4]dioxin-6-yl)-7-(4-fluoro-piperidin-1-yl)-imidazo[1,2-a]pyridine]
17% | Cc1cccc(-c2cn3ccc(N4CCC(CCF)CC4)cc3n2)c1 [Example 85, 7-[4-(2-Fluoro-ethyl)-piperidin-1-yl]-2-m-tolyl-imidazo[1,2-a]pyridine]
33% | CO[C@@H]1CCN(c2ccn3cc(-c4cccc(C)c4)nc3c2)C1 [Example 86, 7-((R)-3-Methoxy-pyrrolidin-1-yl)-2-m-tolyl-imidazo[1,2-a]pyridine]
5% | Cc1ccc(-c2cn3ccc(N4CCC(CCF)CC4)cc3n2)cc1 [Example 87, 7-[4-(2-Fluoro-ethyl)-piperidin-1-yl]-2-p-tolyl-imidazo[1,2-a]pyridine]
34% | CO[C@H]1CCN(c2ccn3cc(-c4ccc(C)cc4)nc3c2)C1 [Example 88, 7-((S)-3-Methoxy-pyrrolidin-1-yl)-2-p-tolyl-imidazo[1,2-a]pyridine]
54% | CNc1ccn2cc(-c3ccc(CO)cc3)nc2c1 [Example 89, [4-[7-(Methylamino)imidazo[1,2-a]pyridin-2-yl]phenyl]methanol acetic acid adduct]
32% | CN(C)c1ccn2cc(-c3ccc(CO)cc3)nc2c1 [Example 90, [4-[7-(Dimethylamino)imidazo[1,2-a]pyridin-2-yl]phenyl]methanol acetic acid adduct]
39% | COc1cccc(-c2cn3ccc(N4CCC4)cc3n2)c1 [Example 91, 7-(azetidin-1-yl)-2-(3-methoxyphenyl)imidazo[1,2-a]pyridine]
25% | CNc1ccn2cc(-c3cc(OC)cc(OC)c3)nc2c1 [Example 92, 2-(3,5-dimethoxyphenyl)-N-methylimidazo[1,2-a]pyridin-7-amine]
39% | CC(=O)O.CCOc1ccc(-c2cn3ccc(NC)cc3n2)cc1 [Example 93, N-[2-(4-Ethoxy-phenyl)-imidazo[1,2-a]pyridin-7-yl]-methyl-amine acetic acid adduct]
18% | CC(=O)O.CNc1ccn2cc(-c3ccc(N4CCCC4)cc3)nc2c1 [Example 94, Methyl-[2-(4-pyrrolidin-1-yl-phenyl)-imidazo[1,2-a]pyridin-7-yl]-amine acetic acid adduct]
55% | CNc1ccn2cc(-c3ccc(OC)c(F)c3)nc2c1 [Example 95, N-[2-(3-Fluoro-4-methoxy-phenyl)-imidazo[1,2-a]pyridin-7-yl]-methyl-amine]

% displacement of [3H]T808 (10 nM) at 10 nM | SMILES
35% | CNc1ccn2cc(-c3ccc4c(c3)OCCCO4)nc2c1 [Example 96, N-[2-(3,4-Dihydro-2H-benzo[b][1,4]dioxepin-7-yl)-imidazo[1,2-a]pyridin-7-yl]-methyl-amine]
18% | CCN(CC)c1ccc(-c2cn3ccc(NC)cc3n2)cc1 [Example 97, N-[2-(4-Diethylamino-phenyl)-imidazo[1,2-a]pyridin-7-yl]-methyl-amine]
38% | CCc1ccc(-c2cn3ccc(NC)cc3n2)cc1 [Example 98, N-[2-(4-Ethyl-phenyl)-imidazo[1,2-a]pyridin-7-yl]-methyl-amine]
37% | COCc1ccc(-c2cn3ccc(N(C)C)cc3n2)cc1 [Example 99, 2-[4-(Methoxymethyl)phenyl]-N,N-dimethyl-imidazo[1,2-a]pyridin-7-amine acetic acid adduct]
59% | CNc1ccn2cc(-c3ccsc3)nc2c1 [Example 100, Methyl-(2-thiophen-3-yl-imidazo[1,2-a]pyridin-7-yl)-amine]
50% | CNc1ccn2cc(-c3ccco3)nc2c1 [Example 101, N-(2-Furan-2-yl-imidazo[1,2-a]pyridin-7-yl)-methyl-amine]
50% | CNc1ccn2cc(-c3cccs3)nc2c1 [Example 102, N-(2-Thiophen-2-yl-imidazo[1,2-a]pyridin-7-yl)-methyl-amine]
47% | CNc1ccn2cc(-c3ccc(N4CCOCC4)cc3)nc2c1 [Example 103, Methyl-[2-(4-morpholin-4-yl-phenyl)-imidazo[1,2-a]pyridin-7-yl]-amine]
10% | CNc1ccn2cc(-c3nccs3)nc2c1 [Example 104, Methyl-(2-thiazol-2-yl-imidazo[1,2-a]pyridin-7-yl)-amine]
10% | CN(C)c1ccn2cc(-c3ccc(COCCF)cc3)nc2c1 [Example 105, 2-[4-(2-Fluoroethoxymethyl)phenyl]-N,N-dimethyl-imidazo[1,2-a]pyridin-7-amine]
36% | FCCOc1ccc(-c2cn3ccc(N4CCC4)cc3n2)cc1 [Example 106, 7-(Azetidin-1-yl)-2-[4-(2-fluoroethoxy)phenyl]imidazo[1,2-a]pyridine]
48% | FCOc1cccc(-c2cn3ccc(N4CCC4)cc3n2)c1 [Example 107, 7-(Azetidin-1-yl)-2-[3-(fluoromethoxy)phenyl]imidazo[1,2-a]pyridine]
26% | CNc1ccn2cc(-c3ccc(C)c(OC)c3)nc2c1 [Example 108, 2-(3-methoxy-4-methylphenyl)-N-methylimidazo[1,2-a]pyridin-7-amine]
40% | CNc1ccn2cc(-c3ccc(OCCF)cc3)nc2c1 [Example 109, 2-[4-(2-Fluoroethoxy)phenyl]-N-methylimidazo[1,2-a]pyridin-7-amine]
14% | CNc1ccn2cc(-c3ccc(N(C)Cc4ccccc4)cc3)nc2c1 [Example 110, 2-(4-(benzyl(methyl)amino)phenyl)-N-methylimidazo[1,2-a]pyridin-7-amine]
17% | CNc1ccn2cc(-c3sccc3Br)nc2c1 [Example 111, N-[2-(3-Bromo-thiophen-2-yl)-imidazo[1,2-a]pyridin-7-yl]-methyl-amine]
6% | CNc1ccn2cc(-c3sccc3Cl)nc2c1 [Example 112, N-[2-(3-Chloro-thiophen-2-yl)-imidazo[1,2-a]pyridin-7-yl]-methyl-amine]
48% | CNc1ccn2cc(-c3ccc(OC(F)F)cc3)nc2c1 [Example 113, N-[2-(4-Difluoromethoxy-phenyl)-imidazo[1,2-a]pyridin-7-yl]-methyl-amine]
